Measurements published in patent US20230263822A1, “MODULATION OF FACTOR 11 EXPRESSION” (Ionis Pharmaceuticals, Inc., priority 2008, published 2023).
Strand notation (5' to 3'): a small letter for the sugar, then the base; units joined by * are phosphorothioate-linked, units joined directly phosphodiester-linked; [ ] holds rarer units or linkages, { } end groups; capitals alone tell only the bases. e = 2'-O-(2-methoxyethyl) (MOE); [5mC] = 5-methylcytosine; d = 2'-deoxy (DNA)

Legend:
Type in all cases: in vivo
[1] = Tolerability in CD1 mice: liver function (Example 43); design: Albumin: unit not given here; settings: 50 mg/kg s.c. twice per week for 6 weeks, plasma
[2] = Tolerability in CD1 mice: kidney function (Example 43); settings: 50 mg/kg s.c. twice per week for 6 weeks, plasma
[3] = Kidney function, BUN, urine protein to creatinine ratio in cynomolgus monkeys (Example 46); settings: for Urine protein/creatinine ratio: day 49
Method: Groups, each consisting of two male and two female monkeys, were injected subcutaneously with 25 mg/kg of ISIS 416850, ISIS 449709, ISIS 445522, ISIS 449710, ISIS 449707, ISIS 449711, ISIS 449708, 416858, and ISIS 445531. Antisense oligonucleotide was administered to the monkeys at 25 mg/kg three times per week for week 1 and 25 mg/kg twice per week for weeks 2 to 8. A control group, consisting of two male and two female monkeys was injected subcutaneously with PBS according to the same dosing regimen. Body weights were taken 14 days and 7 days before the start of treatment and were then measured weekly throughout the treatment period. Blood samples were collected 14 days and 5 days before the start of treatment and subsequently several times during the dosing regimen for PT and aPTT measurements, and measurement of various hematologic factors. On day 55, the monkeys were euthanized by exsanguination while under deep anesthesia, and organs harvested for further analysis.
To evaluate the impact of ISIS oligonucleotides on kidney function, urine samples were collected on different days. […] The ratio of urine protein to creatinine in urine samples after antisense oligonucleotide treatment was also calculated for day 49 and results are presented in Table 156. As observed in Tables 155 and 156, there were no significant increases in any of the kidney metabolic markers after antisense oligonucleotide treatment.

[4] = Day −5 (before start of treatment)
[5] = Day −14 (before start of treatment)

Row | Substance | ALT [1] | AST [1] | Albumin [1] | Bilirubin [1] | BUN [2] | Creatinine [2] | BUN levels ([3]; Day 31) | BUN levels ([3]; Day 55) | BUN levels [3, 4] | BUN levels [3, 5] | Urine protein/creatinine ratio [3]
1 | ISIS 449710: 3-8-3, 4-8-4, 2-10-2, 3-10-3 or 4-10-4 MOE microwalk gapmer (Table 46) (antisense e[5mC]*eA*e[5mC]*dA*dG*dT*dT*dT*d[5mC]*dT*dG*dG*d[5mC]*eA*eG*eG) | 43 IU/L | 95 IU/L | 2.8 | 0.18 mg/dL | 29 mg/dL | 0.2 mg/dL | 19 mg/dL | 23 mg/dL | 19 mg/dL | 19 mg/dL | 0.00
2 | ISIS 449711: 3-8-3, 4-8-4, 2-10-2, 3-10-3 or 4-10-4 MOE microwalk gapmer (Table 46) (antisense eA*e[5mC]*dA*dG*dT*dT*dT*d[5mC]*dT*dG*dG*d[5mC]*eA*eG) | 52 IU/L | 83 IU/L | 2.8 | 0.22 mg/dL | 26 mg/dL | 0.2 mg/dL | 20 mg/dL | 23 mg/dL | 22 mg/dL | 26 mg/dL | 0.01
